Here are results for one molecule from patent US5869714A, “Salts of omega-3-polyunsaturated fatty acids and pharmaceutical formulations containing them” (Prospa B.V., priority 1994, dated 1999).

Structures can show the parent of a compound that is named as a salt.

Data set [1] relates to arteriolar thrombus disaggregation. Briefly: thrombolytic action: arteriolar thrombus disaggregation time after electrical vascular damage in the hamster. In kind it is in vivo, hamster (Mesocricetus auratus). The settings on record: oral. The procedure:
Through a different in vivo experimental model also the effect on thrombus formation and disaggregation was evaluated in the hamster, following vascular damage induced by electrical stimulation (thrombolytic action).
(§1) In the course of a typical experiment, male hamsters of the Mesocricetus auratus genus, weighing 95-115 g, were acclimatized for 1 week in the laboratory before starting the study, then semi-chronically treated by oral route, for 10 consecutive days with the products under examination. More precisely, the animals were divided into 4 groups: group I received the vehicle alone, group II received DHA ethyl ester 100 mg/kg (equivalent to DHA 92 mg/kg), group III and IV were given DHA 50 mg/kg in the form of ethanolamine salt (59.3 mg/kg) and choline salt (65.7 mg/kg respectively).One hour following the last dose the animals were anaesthetized with sodium pentobarbitone (90 mg/kg, i.p.), the cheek pouch everted with a cotton wool bud and the upper layer and the underlying a vascular connective tissue removed with ophthalmic scissors to expose the lower vascular layer which was then bathed with saline solution and examined under a Leitz Dialux microscope (magnification×250).
For the evaluation of the thrombolytic activity a micropipette was filled with 1.0M potassium chloride, applied to an arteriole of diameter 40-60μ and connected to a reference electrode placed in the animal's mouth. A negative potential was applied for 5 seconds using a Grass S48 stimulator to produce a current of 20-30 μA. A second micropipette containing 10^-2 M ADP was applied to the site of electrical damage and a negative potential applied, for 3 seconds. After the current was switched off, the time taken for the resultant thrombus to form and to disaggregate (about 40 seconds) was recorded using a stopwatch. The process of ADP stimulation of the arteriole damaged site was repeated several times and the mean was recorded of the values obtained over one hour and compared with that of the control animals.
The percentage change in the persistence of the thrombus adhering to the damaged site in the treated and untreated animals is therefore an index of the thrombolytic activity of the drug (Table 3).

For data set [2], the system named is erythrocyte phospholipids. Briefly: DHA content of erythrocyte phospholipids in healthy volunteers after 3 weeks oral treatment. In kind it is in vivo. The note with it: 1 g of DHA daily for 3 weeks. Here is the method: Considering that the phospholipid class of the erythrocyte membrane, along with the degree of unsaturation of the acyl chains, does condition red cell deformability and blood viscosity, it has been conducted a study to ascertain the effect of the salts in question on erythrocyte phospholipid composition, which we describe hereunder in illustration. 8 healthy volunteers were then selected and divided into 4 groups which were treated by oral route for 3 weeks with a daily quantity of DHA 1.0 g in the form of ethyl ester (1.1 g), sodium salt (1.1 g), choline salt (1.3 g) and ethanolamine salt (1.2 g). Before and after treatment samples of venous blood were collected and sodium citrate added, then the erythrocytes were isolated, washed for 3 times with saline solution (0.15M NaCl, pH 7.4) at 0° and again suspended in saline solution. 1-ml samples from the red cell suspensions were treated with 5 ml of methanol for 10 minutes then with 5 ml of chloroform containing 2 mg/100 ml of the antioxidant 2,6-di-tert.butyl-4-methyl-phenol (BHT). The organic solvents originating from 3 extractions were evaporated to dryness and the residue, formed by the erythrocyte phospholipids, was subjected to bidimensional chromatography according to Turner J. D. and Rouser G., Anal. Biochem. (Part 1--Erythrocyte lipids), 38, 423, 1970 to separate the different phospholipid classes: silica gel 60H (90 g, Merck) plus Fluorisil (7.2 g, BDH Chemicals) plates were used; the solvent systems consisted of chloroform:methanol: 25% ammonia:water (90:54:5.5:5.5) and chloroform:methanol:acetone:acetic acid:water (60:20:80:20:10). The various classes were identified against standard phospolipids (Sigma Chemical). A sample of total phospholipids and the various stains isolated were treated with 1.5 ml of boron trifluoride-methanol for 1 h at 65° C. under nitrogen, to prepare the methyl esters of the acids contained in the phospholipids to undergo gas-chromatography. To this end a Hewlet-Packard 5890 gas-chromatograph was used, fitted with a ionisation flame detector and with an HPl column 25 m in length and 0.31 mm in int. diameter; elium was used as the carrier gas, the injection port temperature was 320° C. and the detector temperature 340° C. The chamber temperature was programmed at 170° C. for 1 min., then increased by 4°°C./min up to 250° C. and kept at this temperature for 15 minutes.

Data set [3] is described as follows: water solubility. Type of data set: physicochemical.
Data set [4] relates to thrombus growth rate induced by ADP in the hamster microvascular system. Briefly: in vivo antithrombotic action: growth rate of thrombus induced by ADP in hamster microvascular system. On the set-up: species or system hamster (Mesocricetus auratus). The settings on record: oral.
From the text: Considered however that this action is not fully indicative of the possible therapeutic effects of a drug, we measured the in vivo effect of the new salts in extremely significant tests, by determining for instance, their effect on growth rate of a thrombus induced by a known aggregatory agent (adenosine diphosphate; ADP) in the hamster microvascular system (in vivo antithrombotic action).
as §1
Evaluation of the antithrombotic activity requires measuring the growth rate of a thrombus (white body) in the microcirculation induced by the iontophoresis of ADP from a micropipette through the vessel wall. A micropipette of diameter 12μ was filled with 10^-2 M solution of ADP connected with a silver/silver chloride reference electrode placed in the animal's mouth and applied to a venule of diameter 16-40μ. By applying a negative potential to the micropipette, ADP (2×10^-14moles per second) was injected which caused the formation of a white body (platelet thrombus) gradually growing from the wall of the venule. The growth rate of the thrombus was determined by the time taken for 30%, 50% and 90% of the white body to form, 100% referring to total occlusion of the vessel with stasis. When the current was switched off, the white body rapidly embolised and no new white bodies formed until the current was re-applied. Inhibition of thrombus growth rate was calculated by comparing measurements in treated animals with those obtained in the control group (Table 2).

[5] abbreviates: maximum, equiv. to DHA 50 mg/kg × 10 days.

Take `CC/C=C\C/C=C\C/C=C\C/C=C\C/C=C\C/C=C\CCC(=O)O` [DHA ethanolamine salt]: the “Percentage reduction, as compared to the controls, of arteriolar thrombus disaggregation time” value in data set [1] (60-70 minutes post-dose, equiv. to DHA 50 mg/kg × 10 days) is 30.3%; in data set [1] (70-80 minutes post-dose, equiv. to DHA 50 mg/kg × 10 days), 34.2%; in data set [1] (80-90 minutes post-dose, equiv. to DHA 50 mg/kg × 10 days), 34.5%; in data set [1] (90-100 minutes post-dose, equiv. to DHA 50 mg/kg × 10 days) it was 38.1%; in data set [1] (100-110 minutes post-dose, equiv. to DHA 50 mg/kg × 10 days), 30.4%; in data set [1] (110-120 minutes post-dose, equiv. to DHA 50 mg/kg × 10 days), 29.8%. Further, in data set [1] (setting [5]), the “reduction in disaggregation time” value is on record as 37-38%. In addition, the “thrombolytic activity (in words)” value in data set [1] (10 days) was “definitely more active, if given at the same doses”. In data set [2] (phosphatidylcholine), the “Percent increase in DHA content of erythrocyte phospholipids as compared to baseline values: Phosphatidylcholine” value was 113%. Further, the “Percent increase in DHA content of erythrocyte phospholipids as compared to baseline values: Phosphatidylethanolamine” value in data set [2] (phosphatidylethanolamine) came to 70%. For the same molecule, the “Percent increase in DHA content of erythrocyte phospholipids as compared to baseline values: Total phospholipids” value in data set [2] (total phospholipids) amounted to 103%. Moreover, in data set [3], the water solubility entry is reported as “totally water-soluble”. Besides, the “Percentage reduction, as compared to the controls, of thrombus growth rate induced by ADP” value was 16.5% in data set [4] (60 minutes post-dose, equiv. to DHA 50 mg/kg × 10 days); 29.8% in data set [4] (70 minutes post-dose, equiv. to DHA 50 mg/kg × 10 days); 32.2% in data set [4] (80 minutes post-dose, equiv. to DHA 50 mg/kg × 10 days); 33.2% in data set [4] (90 minutes post-dose, equiv. to DHA 50 mg/kg × 10 days); 26.6% in data set [4] (100 minutes post-dose, equiv. to DHA 50 mg/kg × 10 days); 25.0% in data set [4] (110 minutes post-dose, equiv. to DHA 50 mg/kg × 10 days). The “Percentage reduction, as compared to the controls, of thrombus growth rate induced by ADP” value in data set [4] (120 minutes post-dose, equiv. to DHA 50 mg/kg × 10 days) is 22.3%. For the same molecule, in data set [4] (setting [5]), the “percentage reduction in ADP-induced thrombus growth rate, of the order of max.” value is 33-34%. Further, the “antithrombotic activity (in words)” value in data set [4] (10 days) is listed as “highly active”.
